Where a name gives a salt, the structure may show the parent alone.
Key:
[1] = Pharmacokinetics test, plasma concentration after intravenous administration; assay type: in vivo, CD1 (ICR) mice; conditions: mice
Protocol: The concentration of the active form (2-acetylthieno[3,2-f][1]benzofuran-4,8-dione) in plasma was measured for the water-soluble prodrug described in Example 1. The animal species, dosing method, preparation method of a standard solution, and the plasma concentration measurement method are the following.
Animals: 7-week old male CD1 (ICR) mice were used as the experimental animals.
Dosing method: the test sample was weighed and then dissolved in a 50 mmol/L glycine buffered saline (pH 2.0) as the administered solution. The body weight of mice was measured, and the prepared solution was intravenously administered.
Blood collection method: heparin was added to a blood collection tube, and blood was collected from mice. 1% quantity of 46% citric acid was added to the obtained blood, which was centrifuged to give the plasma. 10% quantity of 1 mol/L HCl was added to the collected plasma as the plasma sample. 10% quantity of 1 mol/L HCl added to blank plasma was used as the blank sample. […]
Plasma concentration measurement: 100 ug/mL of standard solution was diluted with an acetonitrile solution to prepare a calibration curve sample with a concentration of interest. […] 180 uL of internal standard containing acetonitrile (containing 1% quantity of 10 mol/L HCl) was added to each of the plasma calibration curve sample and sample for plasma analysis. […]

[2] = Evaluation of conversion rate to active form in CD1 mouse plasma; assay type: in vitro ADME; conditions: CD1 mouse plasma; for Test compound remaining (% of 0 min peak area): 37° C., 10 umol/L
Protocol: (§1) The ratio of decrease of a test compound and the conversion ratio to a corresponding active form (2-acetylthieno[3,2-f][1]benzofuran-4,8-dione) in human plasma and CD1 mouse plasma were measured for Example 1.
(§2) The test compounds were incubated at 37° C. at a concentration of 10 umol/L in human plasma (cat. no. 12250210, Cosmo Bio) and CD1 mouse plasma (cat. no. AP3054, KAC) and retrieved for a given time (0, 5, 10, 30, 60, and 120 minutes) and deproteinized, then analyzed by LC-MS. Acetonitrile comprising each of 10% quantity of 1 mol/L hydrochloric acid, 1% quantity of 46% citric acid, and phenytoin as an internal standard was used for deproteinization.
(§3) LC-MS measurement conditions were the following.
(§4) The yield of the Examples compounds and active form 2-acetylthieno[3,2-f][1]benzofuran-4,8-dione is calculated with each of the peak area of the Example compounds at 0 minutes and the peak area upon dissolution of 2-acetylthieno[3,2-f][1]benzofuran-4,8-dione at 100 umol/L as 100%. The yield is denoted in terms of %.
(§5) In the same manner as Example 1, the conversion ratio to an active form was measured for each of the various test compounds in human plasma and CD1 mouse plasma, with incubation time as 120 minutes. It was confirmed that the series of compounds of the invention was converted to an active form with a small interspecies difference in human plasma and CD1 mouse plasma.
(§6) The yield of the active forms is calculated with the each peak area upon dissolution of the generated active form at 100 umol/L as 100%. The yield is denoted in terms of %.

[3] = Evaluation of conversion rate to active form in human plasma; assay type: in vitro ADME; conditions: for Measurement value % of test compound (ratio of decrease): 37° C., 10 umol/L
Protocol: as §1, §2, §3, §4, §5, §6

physchem = conditions: pH 2, aqueous buffer, thermodynamic from solid
Protocol: The solubility of the water-soluble prodrugs described in the Examples and the Reference Examples was measured. […] The filtrate was measured by HPLC.

[4] = Solution stability test (residual ratio and generation of active form in buffers of pH 2.0 to 9.0); assay type: physicochemical; set-up: Rate of generation of active form after 24 hours in buffer with pH of 7.4: tested at 25 µM; conditions: for Residual ratio: 25 umol/L
How it was run: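 Compounds at 25 umol/L incubated at 25 °C in 50 mmol/L buffers: glycine (pH 2.0, 9.0), citrate (pH 3.0, 5.0), phosphate (pH 7.4). HPLC at 0, 3, 6, 9, 12 and 24 h. Residual % relative to 0-time peak area; active-form yield relative to a 100 umol/L active-form reference peak.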

With `CC(=O)c1cc2c(OC(=O)NCCNCC(=O)O)c3ccsc3c(OC(=O)NCCNCC(=O)O)c2o1` [Example 1, 2,2′-[(2-Acetylthieno[3,2-f][1]benzofuran-4,8-diyl)bis(oxycarbonyliminoethane-2,1-diylimino)]diacetic acid dihydrochloride] the “Generation of active form after intravenous administration (in words)” value [1] was “quickly generated”, the “Degradation in plasma (in words)” value [2] was “quickly progressed” and the “Test compound remaining (% of 0 min peak area)” value ([2]; 0 minutes) was 100%. The “Test compound remaining (% of 0 min peak area)” value ([2]; 5 minutes) was 0.11%, the “Test compound remaining (% of 0 min peak area)” value ([2]; 10 minutes) was 0.01% and the “Test compound remaining (% of 0 min peak area)” value ([2]; 30 minutes) was 0.01%. For the same molecule, the “Test compound remaining (% of 0 min peak area)” value ([2]; 60 minutes) was 0.01%, the “Test compound remaining (% of 0 min peak area)” value ([2]; 120 minutes) was 0.08% and the “Degradation in plasma (in words)” value ([3]; human plasma) was “quickly progressed”. The “Interspecies difference of conversion to active form (in words)” value ([3]; human plasma versus CD1 mouse plasma) was “interspecies difference was small”, the “Measurement value % of test compound (ratio of decrease)” value ([3]; human plasma, 0 minutes) was 100% and the “Measurement value % of test compound (ratio of decrease)” value ([3]; human plasma, 5 minutes) was 0.0%. For the same molecule, the “Measurement value % of test compound (ratio of decrease)” value ([3]; human plasma, 10 minutes) was 0.0%, the “Measurement value % of test compound (ratio of decrease)” value ([3]; human plasma, 30 minutes) was 0.0% and the “Measurement value % of test compound (ratio of decrease)” value ([3]; human plasma, 60 minutes) was 0.0%. For the same molecule, the “Measurement value % of test compound (ratio of decrease)” value ([3]; human plasma, 120 minutes) was 0.0%, the solubility at 24 h (physchem) was greater than 10000 µg/mL and the Residual ratio ([4]; pH2.0 buffer, 25° C., 0 hr) was 100%. For the same molecule, the Residual ratio ([4]; pH2.0 buffer, 25° C., 3 hr) was 100%, the Residual ratio ([4]; pH2.0 buffer, 25° C., 6 hr) was 103% and the Residual ratio ([4]; pH2.0 buffer, 25° C., 9 hr) was 102%. The Residual ratio ([4]; pH2.0 buffer, 25° C., 12 hr) was 102%, the Residual ratio ([4]; pH2.0 buffer, 25° C., 24 hr) was 98.6% and the “Degradation behaviour in buffers (in words)” value ([4]; pH 2.0 to 9.0) was “pH dependent and chemical degradation progressed”. For the same molecule, the Residual ratio ([4]; pH3.0 buffer, 25° C., 0 hr) was 99.9%, the Residual ratio ([4]; pH3.0 buffer, 25° C., 3 hr) was 97.6% and the Residual ratio ([4]; pH3.0 buffer, 25° C., 6 hr) was 95.3%. It also gave a Residual ratio ([4]; pH3.0 buffer, 25° C., 9 hr) of 95.6%, a Residual ratio ([4]; pH3.0 buffer, 25° C., 12 hr) of 90.9% and a Residual ratio ([4]; pH3.0 buffer, 25° C., 24 hr) of 86.9%. The Residual ratio ([4]; pH5.0 buffer, 25° C., 0 hr) was 85.1%, the Residual ratio ([4]; pH5.0 buffer, 25° C., 3 hr) was 6.6% and the Residual ratio ([4]; pH5.0 buffer, 25° C., 6 hr) was 3.9%. It also gave a Residual ratio ([4]; pH5.0 buffer, 25° C., 9 hr, dihydrochloride) of 0%, a Residual ratio ([4]; pH5.0 buffer, 25° C., 12 hr) of 0.0% and a Residual ratio ([4]; pH5.0 buffer, 25° C., 24 hr) of 0.0%. For the same molecule, the Residual ratio ([4]; pH7.4 buffer, 25° C., 0 hr, dihydrochloride) was 0%, the Residual ratio ([4]; pH7.4 buffer, 25° C., 3 hr) was 0.0% and the Residual ratio ([4]; pH7.4 buffer, 25° C., 6 hr) was 0.0%. The Residual ratio ([4]; pH7.4 buffer, 25° C., 9 hr) was 0.0%, the Residual ratio ([4]; pH7.4 buffer, 25° C., 12 hr) was 0.0% and the Residual ratio ([4]; pH7.4 buffer, 25° C., 24 hr) was 0.0%. The “Rate of generation of active form after 24 hours in buffer with pH of 7.4” value ([4]; pH 7.4 buffer, 24 hours, 25° C.) was 92%, the Residual ratio ([4]; pH9.0 buffer, 25° C., 0 hr, dihydrochloride) was 0% and the Residual ratio ([4]; pH9.0 buffer, 25° C., 3 hr) was 0.0%. For the same molecule, the Residual ratio ([4]; pH9.0 buffer, 25° C., 6 hr) was 0.0%, the Residual ratio ([4]; pH9.0 buffer, 25° C., 9 hr) was 0.0% and the Residual ratio ([4]; pH9.0 buffer, 25° C., 12 hr) was 0.0%. The Residual ratio ([4]; pH9.0 buffer, 25° C., 24 hr) was 0.0%, the “Stability in solution (in words)” value ([4]; pH of 2.0, 25° C.) was “very stable” and the “Stability in solution (in words)” value ([4]; pH of 3.0, 25° C.) was “sufficiently stable”.
